{"source": "paper PMC5353720", "about": "(2017)", "system": "PSA-aptamer (DNA, aptamer) TTTTTAATTAAAGCTCGCCATCAAATAGCTTT", "experiment": "extended-gate field-effect transistor (AptaFET)", "conditions": "PBS, 1 mM MgCl2 (incubation); PBS (readout); 500 nM highest tested; shift 2.7 ± 0.3 mV against 22.3 mV on TFV-aptamer; immobilised aptamer", "data": [{"compound": "C[C@H](Cn1cnc2c(N)ncnc21)OCP(=O)(O)O", "values": [{"measurement": "binding", "value": "no"}]}]}
